These results are taken from ChEMBL document CHEMBL3046882, “Synthesis and antibacterial activity against ralstonia solanacearum for novel hydrazone derivatives containing a pyridine moiety” (2012).

Experiment [1] has as its system Ralstonia solanacearum. The experiment can be described thus: Antibacterial activity against Ralstonia solanacearum assessed as growth inhibition at […] after 48 hrs by turbidimeter test. It counts as functional. Details: dose or concentration left out as unconfirmed. To be noted: for inhibition of growth: read-out: GI.
Experiment [2] has as its system Ralstonia solanacearum. The experiment is described as follows: Antibacterial activity against Ralstonia solanacearum assessed as growth inhibition at […] after 48 hrs by turbidimeter test. It counts as functional. Details: dose or concentration left out as unconfirmed. Conditions: for inhibition of growth: read-out: GI.

Turning to `COc1ccc(OC)c(/C=N\NC(=O)c2cc(Cl)cc(C)c2NC(=O)c2cccnc2Cl)c1`, the inhibition of growth in the experiment on Ralstonia solanacearum [1] stood at 1.9%; with Ralstonia solanacearum [2], 25.2%.

As to `Cc1cc(Cl)cc(C(=O)N/N=C\c2c(Cl)cccc2Cl)c1NC(=O)c1cccnc1Cl`, the inhibition of growth in the experiment with Ralstonia solanacearum [1] came to 15.2%; in the experiment with Ralstonia solanacearum [2], 18.2%.

Take `Cc1cc(Cl)cc(C(=O)N/N=C\c2ccc(Cl)c(Cl)c2)c1NC(=O)c1cccnc1Cl`: the inhibition of growth in the experiment with Ralstonia solanacearum [1] worked out at 12.4%; in the experiment with Ralstonia solanacearum [2] it was 35%.

Take `Cc1cc(Cl)cc(C(=O)N/N=C\c2cccc(C(F)(F)F)c2)c1NC(=O)c1cccnc1Cl`: the inhibition of growth in the experiment on Ralstonia solanacearum [1] is 33.3%; in the experiment on Ralstonia solanacearum [2], 80.9%.

On to `COc1cccc(/C=N\NC(=O)c2cc(Cl)cc(C)c2NC(=O)c2cccnc2Cl)c1OC`, for which the inhibition of growth with Ralstonia solanacearum [1] was found to be 0%; in the experiment on Ralstonia solanacearum [2], 40.3%.

`Cc1cc(Cl)cc(C(=O)N/N=C\c2ccc(C(C)(C)C)cc2)c1NC(=O)c1cccnc1Cl`: the inhibition of growth stood at 18.2% with Ralstonia solanacearum [1] and 39% in the experiment with Ralstonia solanacearum [2].

With `Cc1cc(Cl)cc(C(=O)N/N=C\c2ccccc2Cl)c1NC(=O)c1cccnc1Cl`, the inhibition of growth in the experiment with Ralstonia solanacearum [1] came to 0%; with Ralstonia solanacearum [2], 6%.

Turning to `COc1ccc(/C=N\NC(=O)c2cc(Cl)cc(C)c2NC(=O)c2cccnc2Cl)c(OC)c1`, the figures for the inhibition of growth with Ralstonia solanacearum [1] and in the experiment with Ralstonia solanacearum [2] were 0% and 36.1%, respectively.

With `Cc1cc(Cl)cc(C(=O)N/N=C\c2ccc(F)cc2)c1NC(=O)c1cccnc1Cl`, the inhibition of growth was 1.1% in the experiment on Ralstonia solanacearum [1] and 5% in the experiment on Ralstonia solanacearum [2].

As to COPPER HYDROXIDE, the growth inhibition (GI) in the experiment with Ralstonia solanacearum [1] and with Ralstonia solanacearum [2] was 100% each time.

Regarding `CC/C=N\NC(=O)c1cc(Cl)cc(C)c1NC(=O)c1cccnc1Cl`, the inhibition of growth amounted to 0% with Ralstonia solanacearum [1] and 5% in the experiment with Ralstonia solanacearum [2].

On to `Cc1cc(Cl)cc(C(=O)N/N=C\N(C)C)c1NC(=O)c1cccnc1Cl`, for which the inhibition of growth is 57.1% in the experiment on Ralstonia solanacearum [1] and 100% in the experiment with Ralstonia solanacearum [2].
